Data as given in ChEMBL document CHEMBL1154969, “LXXLL peptide mimetics as inhibitors of the interaction of vitamin D receptor with coactivators” (Bioorg Med Chem Lett, 2010).
One block for each compound: values may come before it.

How the values were obtained:
[1] = target: T1, Estrogen receptor beta (Homo sapiens, UniProt Q92731); assay: Antagonist activity at human recombinant ERbeta LBD expressed in HEK293 cells assessed as inhibition of 0.3 nM estradiol-induced transcriptional activation at 30 uM after 16 to 18 hrs by GAL4-dependent luciferase reporter gene assay; type: functional, cell-based
[2] = target: T2, Estrogen receptor (Homo sapiens, UniProt P03372); assay: Antagonist activity at human recombinant ERalpha LBD expressed in HEK293 cells assessed as inhibition of 0.3 nM estradiol-induced transcriptional activation after 16 to 18 hrs by GAL4-dependent luciferase reporter gene assay; type: functional, cell-based
T2 sequence (P03372 whole entry): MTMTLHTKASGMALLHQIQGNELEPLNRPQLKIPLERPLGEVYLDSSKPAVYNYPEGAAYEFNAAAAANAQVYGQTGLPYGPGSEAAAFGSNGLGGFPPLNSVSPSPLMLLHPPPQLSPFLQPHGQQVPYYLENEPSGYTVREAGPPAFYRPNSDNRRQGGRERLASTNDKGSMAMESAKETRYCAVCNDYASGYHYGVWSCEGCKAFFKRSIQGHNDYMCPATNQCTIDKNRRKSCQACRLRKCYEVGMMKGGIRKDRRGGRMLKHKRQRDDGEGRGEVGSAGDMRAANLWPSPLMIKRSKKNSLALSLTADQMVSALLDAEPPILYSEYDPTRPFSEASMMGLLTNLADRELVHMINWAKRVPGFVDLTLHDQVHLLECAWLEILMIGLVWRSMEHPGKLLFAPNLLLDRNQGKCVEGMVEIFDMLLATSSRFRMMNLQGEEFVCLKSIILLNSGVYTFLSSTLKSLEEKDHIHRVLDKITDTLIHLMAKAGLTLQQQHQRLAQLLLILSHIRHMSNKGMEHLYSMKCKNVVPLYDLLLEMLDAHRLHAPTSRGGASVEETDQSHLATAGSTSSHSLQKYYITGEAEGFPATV

[3] = target: T3, Vitamin D3 receptor (Homo sapiens) (UniProt P11473); assay: Antagonist activity at human recombinant VDR LBD expressed in HEK293 cells assessed as inhibition of 300 nM 1,25-(OH)2D3-induced transcriptional activation at 30 uM after 16 to 18 hrs by GAL4-dependent luciferase reporter gene assay; type: functional, cell-based
T3 sequence (whole entry): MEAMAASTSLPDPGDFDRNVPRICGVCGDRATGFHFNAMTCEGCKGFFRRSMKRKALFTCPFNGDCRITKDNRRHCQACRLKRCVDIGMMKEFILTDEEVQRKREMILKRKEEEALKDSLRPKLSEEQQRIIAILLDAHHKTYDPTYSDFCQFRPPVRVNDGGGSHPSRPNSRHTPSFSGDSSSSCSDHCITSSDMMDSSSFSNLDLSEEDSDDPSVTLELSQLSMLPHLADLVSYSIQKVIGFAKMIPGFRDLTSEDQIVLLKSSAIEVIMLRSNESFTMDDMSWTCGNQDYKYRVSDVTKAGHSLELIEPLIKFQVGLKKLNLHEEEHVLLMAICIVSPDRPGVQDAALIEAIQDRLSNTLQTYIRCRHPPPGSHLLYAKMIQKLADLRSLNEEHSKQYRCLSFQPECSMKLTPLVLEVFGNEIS

[4] = target: T4, Vitamin D3 receptor (Homo sapiens, UniProt P11473); assay: Antagonist activity at human recombinant VDR LBD expressed in HEK293 cells assessed as inhibition of 3 nM 1,25-(OH)2D3-induced transcriptional activation after 16 to 18 hrs by GAL4-dependent luciferase reporter gene assay; type: functional, cell-based
T4 sequence (P11473 whole entry): T3 sequence (whole entry)

[5] = target: T3, Vitamin D3 receptor (Homo sapiens); assay: Displacement of 1,25-dihydroxyvitamin D3 from GST-tagged VDR ligand binding domain assessed as inhibition of interaction with coactivator proteins at 30 uM by TR-FRET assay
[6] = target: T3, Vitamin D3 receptor (Homo sapiens); assay: Antagonist activity at human recombinant VDR LBD expressed in HEK293 cells assessed as inhibition of 3 nM 1,25-(OH)2D3-induced transcriptional activation at 30 uM after 16 to 18 hrs by GAL4-dependent luciferase reporter gene assay; type: functional, cell-based
[7] = target: T1, Estrogen receptor beta; assay: Antagonist activity at human recombinant ERbeta LBD expressed in HEK293 cells assessed as inhibition of 0.3 nM estradiol-induced transcriptional activation after 16 to 18 hrs by GAL4-dependent luciferase reporter gene assay; type: functional, cell-based
[8] = target: T4, Vitamin D3 receptor; assay: Displacement of 1,25-dihydroxyvitamin D3 from GST-tagged VDR ligand binding domain assessed as inhibition of interaction with coactivator proteins by TR-FRET assay
[9] = target: T4, Vitamin D3 receptor; assay: (§1) Antagonist activity at human recombinant VDR LBD expressed in HEK293 cells assessed as inhibition of 300 nM 1,25-(OH)2D3-induced transcriptional activation after 16 to 18 hrs by GAL4-dependent luciferase reporter gene assay; type: functional, cell-based
[10] = target: T3, Vitamin D3 receptor (Homo sapiens); assay: as §1; type: functional, cell-based
[11] = target: T2, Estrogen receptor; assay: Inhibition of ER
[12] = target: T5, Androgen receptor (Homo sapiens, UniProt P10275); assay: Inhibition of AR
T5 sequence (P10275 whole entry): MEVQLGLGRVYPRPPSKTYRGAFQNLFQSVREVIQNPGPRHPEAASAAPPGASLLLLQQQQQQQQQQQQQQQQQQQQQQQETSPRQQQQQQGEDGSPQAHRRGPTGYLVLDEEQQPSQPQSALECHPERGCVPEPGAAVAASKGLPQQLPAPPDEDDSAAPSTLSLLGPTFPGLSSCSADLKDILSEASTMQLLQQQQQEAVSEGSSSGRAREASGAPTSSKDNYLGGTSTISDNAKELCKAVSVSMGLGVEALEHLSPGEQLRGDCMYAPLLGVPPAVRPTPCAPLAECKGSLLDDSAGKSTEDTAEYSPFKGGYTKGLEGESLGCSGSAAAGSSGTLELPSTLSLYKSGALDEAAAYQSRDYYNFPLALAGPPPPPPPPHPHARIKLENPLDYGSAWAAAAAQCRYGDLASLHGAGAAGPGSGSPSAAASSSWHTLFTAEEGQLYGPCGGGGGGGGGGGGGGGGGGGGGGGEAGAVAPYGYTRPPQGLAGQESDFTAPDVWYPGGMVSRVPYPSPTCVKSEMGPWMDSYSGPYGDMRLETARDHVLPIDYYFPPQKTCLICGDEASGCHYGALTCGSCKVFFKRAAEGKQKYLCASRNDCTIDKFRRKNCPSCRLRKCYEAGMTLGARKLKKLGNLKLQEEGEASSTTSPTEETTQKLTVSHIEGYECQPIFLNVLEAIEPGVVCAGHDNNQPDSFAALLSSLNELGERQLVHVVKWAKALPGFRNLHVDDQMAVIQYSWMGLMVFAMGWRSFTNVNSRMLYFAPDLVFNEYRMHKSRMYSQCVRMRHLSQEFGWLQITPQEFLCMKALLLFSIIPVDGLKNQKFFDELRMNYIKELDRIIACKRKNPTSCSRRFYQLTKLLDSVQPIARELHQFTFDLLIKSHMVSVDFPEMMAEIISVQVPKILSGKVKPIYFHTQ

[13] = target: T3, Vitamin D3 receptor (Homo sapiens); assay: Antagonist activity at human recombinant VDR LBD expressed in HEK293 cells assessed as inhibition of 300 nM 1,25-(OH)2D3-induced transcriptional activation at 10 uM after 16 to 18 hrs by GAL4-dependent luciferase reporter gene assay; type: functional, cell-based
[14] = target: T3, Vitamin D3 receptor (Homo sapiens); assay: Displacement of 1,25-dihydroxyvitamin D3 from GST-tagged VDR ligand binding domain assessed as inhibition of interaction with coactivator proteins at 10 uM by TR-FRET assay
[15] = target: T3, Vitamin D3 receptor (Homo sapiens); assay: Antagonist activity at human recombinant VDR LBD expressed in HEK293 cells assessed as inhibition of 3 nM 1,25-(OH)2D3-induced transcriptional activation at 10 uM after 16 to 18 hrs by GAL4-dependent luciferase reporter gene assay; type: functional, cell-based
[16] = target: T6, Estrogen receptor (Homo sapiens) (UniProt P03372); details: HEK293, 30 uM
T6 sequence (whole entry): T2 sequence (P03372 whole entry)
Description: Antagonist activity at human recombinant ERalpha LBD expressed in HEK293 cells assessed as inhibition of 0.3 nM estradiol-induced transcriptional activation at 30 uM after 16 to 18 hrs by GAL4-dependent luciferase reporter gene assay

T1 sequence (Q92731 whole entry, the tested form may be a part): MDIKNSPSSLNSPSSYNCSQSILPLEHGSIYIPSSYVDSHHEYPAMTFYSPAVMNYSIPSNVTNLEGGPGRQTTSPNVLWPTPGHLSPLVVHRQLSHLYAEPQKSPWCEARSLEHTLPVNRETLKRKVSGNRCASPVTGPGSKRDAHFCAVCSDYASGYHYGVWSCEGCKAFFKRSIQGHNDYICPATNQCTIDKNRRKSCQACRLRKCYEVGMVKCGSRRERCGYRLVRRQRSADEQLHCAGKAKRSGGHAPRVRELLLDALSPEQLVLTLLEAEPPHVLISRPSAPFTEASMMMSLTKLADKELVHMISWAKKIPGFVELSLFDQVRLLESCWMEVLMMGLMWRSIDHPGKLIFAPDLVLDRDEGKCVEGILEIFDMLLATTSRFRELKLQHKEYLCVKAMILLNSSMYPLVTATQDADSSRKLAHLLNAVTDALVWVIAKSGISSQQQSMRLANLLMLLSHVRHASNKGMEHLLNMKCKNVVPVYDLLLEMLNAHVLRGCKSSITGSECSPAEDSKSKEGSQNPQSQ

inhibition [1]: 18%
IC50 [2]: > 30 µM
inhibition [3]: 53%
IC50 [4]: 30 µM
inhibition [5]: 48%
inhibition [6]: 47%
IC50 [7]: > 30 µM
IC50 [8]: 30 µM
IC50 [9]: 30 µM
inhibition [10]: 8%
SMILES: CC(C)CCN1Cc2cc(CC(C)C)c(N)cc2N[C@@H](CC(C)C)C1=O

Ki [11]: 4.2 µM
SMILES: CC(C)Cc1cc(O)c(=O)n(Cc2ccc3ccccc3c2)c1-c1ccnc(Cc2ccccc2)c1

Ki [12]: 1.5 µM
SMILES: CC(C)CNc1cc(CCc2cccc3ccccc23)nc(NCc2cccc3ccccc23)n1

IC50 [8]: 13 µM
SMILES: CC(C)CCN1Cc2cc(CC(C)C)c(NCCNC(=O)OC(C)(C)C)cc2N[C@@H](CC(C)C)C1=O

Ki [11]: 29 µM
SMILES: CC(C)CNc1cc(CC(C)C)nc(NCC(C)C)n1

inhibition [5]: 46%
IC50 [8]: > 30 µM
SMILES: CC(C)CCN1Cc2cc(CC(C)C)c(NC(=N)N)cc2N[C@@H](CC(C)C)C1=O

inhibition [13]: 66%
inhibition [14]: 87%
IC50 [4]: 0.22 µM
inhibition [15]: 98%
IC50 [9]: 3.3 µM
SMILES: C=C1/C(=C\C=C2/CCC[C@]3(C)[C@@H]([C@H](C)C[C@H]4C[C@@](C)(O)C(=O)N4CCc4ccccc4)CC[C@@H]23)C[C@@H](O)C[C@@H]1O

inhibition [1]: 56%
inhibition [16]: 8%
IC50 [2]: > 30 µM
inhibition [3]: 59%
IC50 [4]: 17 µM
inhibition [5]: 76%
inhibition [6]: 68%
IC50 [7]: 22 µM
IC50 [8]: 20 µM
IC50 [9]: 23 µM
SMILES: CC(C)=Cc1cc2c(cc1N)N[C@@H](CC(C)C)C(=O)N(CCC(C)C)C2

IC50 [8]: 28 µM
SMILES: CC(C)CCN1Cc2cc(CC(C)C)c(NCCN)cc2N[C@@H](CC(C)C)C1=O

inhibition [5]: 43%
IC50 [8]: > 30 µM
SMILES: CC(=O)NCCNc1cc2c(cc1CC(C)C)CN(CCC(C)C)C(=O)[C@H](CC(C)C)N2
